For the test, the system named is MYB mRNA. Put plainly: RT-qPCR splicing assay, MYB mRNA canonical (CJ) and alternative (AJ) junction. The class given is cell-based, human. Conditions: Homo sapiens; for AC50: MYB alternative junction mRNA, read-out: MYB AJ (increase in AJ mRNA, AC50). The method, boiled down:
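Both isoforms, CJ and AJ, read by qPCR from crude lysates of treated A673 or K562 cells; 24 h, 37 °C, maximum 10 uM. Normalization: housekeeper ΔCt, then DMSO ΔΔCt.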
(Real-time PCR tracks product formation cycle by cycle.)

The mark [1] stands for this setting: MYB canonical junction mRNA, RT-qPCR, read-out: MYB CJ (decrease in CJ mRNA levels, IC50).
Setting [2] is: canonical junction qPCR panel, Table 4, read-out: MYB IC50 (decrease in CJ mRNA levels).

Like-named read-outs stand apart in the source and are kept apart here. Where only a bound is given, the exact number is not on record here.

For the molecule `C[C@H]1C[C@H](c2ccc3nc(-c4cc5cn(C)nc5c(F)c4O)ccc3n2)CCN1` (single isomer, unassigned) [Compound 356], the AC50 (as a rule, the midpoint of the concentration-response curve, whichever way the signal moves) (RT-qPCR) is less than 100 nM. Moreover, the IC50 (usually the midpoint of a concentration-inhibition curve) was less than 100 nM under setting [1] and less than 100 nM under setting [2].
On to `Cc1c(O)c(-c2ccc3nc(N4CC[C@H](N[C@H]5C[C@H](F)C5)C4)ccc3n2)cc2cn(C)nc12` (single isomer, unassigned) [Compound 358], for which the AC50 (RT-qPCR) was less than 100 nM. The IC50 is, setting by setting: under setting [1], less than 100 nM; under setting [2], less than 100 nM.
Consider `Cn1cc2cc(-c3ccc4nc(N5CC[C@@H](N)C5)ccc4n3)c(O)c(F)c2n1` (single isomer, unassigned) [Compound 362], for which, for the setting “RT-qPCR”, the AC50 is less than 100 nM. Also, the IC50 runs as follows: under setting [1], less than 100 nM; under setting [2], less than 100 nM.
For `CN[C@@H]1CCN(c2ccc3nc(-c4cc5cn(C)nc5c(C)c4O)ncc3n2)C1` (single isomer, unassigned) [Compound 368], the AC50 (RT-qPCR) is less than 100 nM. In addition, the IC50 by setting is: under setting [1], less than 100 nM; under setting [2], less than 100 nM.
Take `CN[C@H]1CCN(c2ccc3nc(-c4cc5cn(C)nc5c(C)c4O)ncc3n2)C1` (single isomer, unassigned) [Compound 369]: the AC50 (RT-qPCR) was 100 to 1000 nM. Moreover, the IC50 under setting [1] is 100 to 1000 nM and the IC50 under setting [2] fell in the range of 100 to 1000 nM.
For the molecule `Cc1nc2c(F)c(O)c(-c3ccc4nc(N5CC[C@H](NC6(CF)CC6)C5)ccc4n3)cc2o1` (single isomer, unassigned) [Compound 373], the AC50 (RT-qPCR) was less than 100 nM. For the same molecule, the IC50 reads like this: under setting [1], less than 100 nM; under setting [2], less than 100 nM.
Turning to `Cc1nc2c(C)c(O)c(-c3ccc4nc(N5CC[C@H](NC6(CF)CC6)C5)ccc4n3)cc2o1` (single isomer, unassigned) [Compound 378], the AC50 (RT-qPCR) is less than 100 nM. Also, the IC50 by setting is: under setting [1], less than 100 nM; under setting [2], less than 100 nM.
Turning to `Cc1nc2c(C)c(O)c(-c3ccc4nc(N5CC[C@@H](NC6(CF)CC6)C5)ccc4n3)cc2o1` (single isomer, unassigned) [Compound 379], the AC50 (RT-qPCR) lay within 100 to 1000 nM. The IC50 under setting [1] fell in the range of 100 to 1000 nM and the 50% inhibitory concentration (IC50) under setting [2] is 100 to 1000 nM.
As to `Cn1cc2cc(-c3ncc4nc(N5CC[C@@H](N)C5)ccc4n3)c(O)c(F)c2n1` (single isomer, unassigned) [Compound 380], under “RT-qPCR”, the AC50 is less than 100 nM. In addition, the IC50 was less than 100 nM under setting [1] and less than 100 nM under setting [2].
Turning to `C[C@H]1C[C@@H](c2ccc3nc(-c4cc5cn(C)nc5c(F)c4O)ccc3n2)CCN1` (single isomer, unassigned) [Compound 383], the AC50 (RT-qPCR) is less than 100 nM. For the same molecule, the IC50 under setting [1] is less than 100 nM and the IC50 under setting [2] was less than 100 nM.
In the case of `Cn1cc2cc(-c3ccc4nc(C5CCNC[C@H]5O)ccc4n3)c(O)cc2n1` (single isomer, unassigned) [Compound 386], the half-maximal activity concentration (AC50) (RT-qPCR) lay within 1000 to 10000 nM. For the same molecule, the IC50 runs as follows: under setting [1], 100 to 1000 nM; under setting [2], 100 to 1000 nM.
`Cn1cc2cc(-c3ccc4nc(N5CC[C@@H](NC(C)(C)C)C5)ccc4n3)c(O)c(F)c2n1` (single isomer, unassigned) [Compound 391]: the AC50 (RT-qPCR) was less than 100 nM. Besides, the IC50 runs as follows: under setting [1], less than 100 nM; under setting [2], less than 100 nM.
In the case of `Cn1cc2cc(-c3ccc4nc(N5CC[C@H](NC(C)(C)C)C5)ccc4n3)c(O)c(F)c2n1` (single isomer, unassigned) [Compound 392], the AC50 (RT-qPCR) was less than 100 nM. Also, the IC50 under setting [1] was less than 100 nM and the half-inhibitory concentration (IC50) under setting [2] was less than 100 nM.
As to `Cc1c(O)c(-c2ncc3nc([C@@H]4CCNC4)ccc3n2)cc2cn(C)nc12` (single isomer, unassigned) [Compound 398], the half-maximal activity concentration (AC50) (RT-qPCR) was in the range of 1000 to 10000 nM. Further, the IC50 reads like this: under setting [1], 1000 to 10000 nM; under setting [2], 1000 to 10000 nM.
Regarding `Cc1nc2c(C)c(O)c(-c3ccc4nc(N5CC[C@@H](NC6CC6)C5)ncc4n3)cc2o1` (single isomer, unassigned) [Compound 432], the AC50 (RT-qPCR) fell in the range of 100 to 1000 nM. Also, the IC50 reads like this: under setting [1], less than 100 nM; under setting [2], less than 100 nM.
As for `Cc1nc2cc(O)c(-c3ccc4nc(N5CC[C@@H](NC6CC6)C5)ncc4n3)cc2o1` (single isomer, unassigned) [Compound 434], for the setting “RT-qPCR”, the concentration at half-maximal activity (AC50) is 100 to 1000 nM. The 50% inhibitory concentration (IC50) is, setting by setting: under setting [1], 100 to 1000 nM; under setting [2], 100 to 1000 nM.
`Cc1nc2c(C)c(O)c(-c3ccc4cc(N5CC[C@@H](NC(C)(C)C)C5)ncc4n3)cc2o1` (single isomer, unassigned) [Compound 444]: the AC50 (RT-qPCR) is 100 to 1000 nM. Also, the IC50 by setting is: under setting [1], 100 to 1000 nM; under setting [2], 100 to 1000 nM.
In the case of `Cc1nc2c(C)c(O)c(-c3ccc4cc(N5CC[C@H](NC(C)(C)C)C5)ncc4n3)cc2o1` (single isomer, unassigned) [Compound 445], the half-maximal activity concentration (AC50) (RT-qPCR) lay in the range of 1000 to 10000 nM. Besides, the IC50 runs as follows: under setting [1], 1000 to 10000 nM; under setting [2], 1000 to 10000 nM.
`Cc1nc2cc(O)c(-c3ccc4nc(N5CC[C@@H](NC6(CF)CC6)C5)ccc4n3)cc2o1` (single isomer, unassigned) [Compound 488]: under “RT-qPCR”, the AC50 was less than 100 nM. For the same molecule, the IC50 was less than 100 nM under setting [1] and less than 100 nM under setting [2].
Take `Cc1nc2cc(O)c(-c3ccc4nc(N5CC[C@H](NC6(CF)CC6)C5)ccc4n3)cc2o1` (single isomer, unassigned) [Compound 489]: the AC50 (RT-qPCR) was less than 100 nM. Besides, the IC50 under setting [1] is less than 100 nM and the IC50 under setting [2] was less than 100 nM.
`Cc1nc2c(F)c(O)c(-c3ccc4nc(N5CC[C@@H](NC6(CF)CC6)C5)ccc4n3)cc2o1` (single isomer, unassigned) [Compound 491]: under “RT-qPCR”, the AC50 is less than 100 nM. For the same molecule, the concentration for half-maximal inhibition (IC50) is less than 100 nM under setting [1] and less than 100 nM under setting [2].
Turning to `Cn1cc2cc(-c3ccc4nc(N5CCC(NC6(CF)CC6)C5)ccc4n3)c(O)c(F)c2n1` (stereo in doubt) [Compound 353, 7-fluoro-5-{6-[(3R)-3-{[1-(fluoromethyl)cyclopropyl]amino}pyrrolidin-1-yl]-1,5-naphthyridin-2-yl}-2-methylindazol-6-ol], the AC50 (RT-qPCR) is less than 100 nM. The IC50 reads like this: under setting [1], less than 100 nM; under setting [2], less than 100 nM.
In the case of `Cn1cc2cc(-c3ccc4nc(N5CCC(NC6(CF)CC6)C5)ccc4n3)c(O)c(F)c2n1` (stereo in doubt) [Compound 357, 7-fluoro-5-{6-[(3S)-3-{[1-(fluoromethyl)cyclopropyl]amino}pyrrolidin-1-yl]-1,5-naphthyridin-2-yl}-2-methylindazol-6-ol], where the note is “RT-qPCR”, the AC50 is less than 100 nM. The IC50 runs as follows: under setting [1], less than 100 nM; under setting [2], less than 100 nM.
With `Cn1cc2cc(-c3ccc4nc(N5CCC(N)C5)ccc4n3)c(O)c(F)c2n1` (stereo in doubt) [Compound 363, 5-{6-[(3R)-3-aminopyrrolidin-1-yl]-1,5-naphthyridin-2-yl}-7-fluoro-2-methylindazol-6-ol], the AC50 (RT-qPCR) was less than 100 nM. The half-maximal inhibitory concentration (IC50) runs as follows: under setting [1], less than 100 nM; under setting [2], less than 100 nM.
Take `Cc1nc2c(F)c(O)c(-c3ccc4nc(N5CC[C@@H](N[C@H]6C[C@@H](F)C6)C5)ccc4n3)cc2o1` (stereo in doubt) [Compound 375]: the AC50 (RT-qPCR) is less than 100 nM. Moreover, the IC50 by setting is: under setting [1], less than 100 nM; under setting [2], less than 100 nM.
Take `Cc1nc2c(C)c(O)c(-c3ccc4nc(N5CC[C@@H](N[C@H]6C[C@@H](F)C6)C5)ccc4n3)cc2o1` (stereo in doubt) [Compound 376]: the AC50 (RT-qPCR) was less than 100 nM. In addition, the IC50 was less than 100 nM under setting [1] and less than 100 nM under setting [2].
For the molecule `Cc1nc2c(C)c(O)c(-c3ccc4nc(N5CC[C@H](N[C@H]6C[C@@H](F)C6)C5)ccc4n3)cc2o1` (stereo in doubt) [Compound 377], where the note is “RT-qPCR”, the AC50 was less than 100 nM. For the same molecule, the IC50 runs as follows: under setting [1], less than 100 nM; under setting [2], less than 100 nM.
As for `Cc1nc2cc(O)c(-c3ccc4nc(N5CC[C@@H](N[C@H]6C[C@@H](F)C6)C5)ccc4n3)cc2o1` (stereo in doubt) [Compound 395], the AC50 (RT-qPCR) lay in the range of 100 to 1000 nM. Besides, the IC50 by setting is: under setting [1], 100 to 1000 nM; under setting [2], 100 to 1000 nM.
For `Cc1nc2cc(O)c(-c3ccc4nc(N5CC[C@H](N[C@H]6C[C@@H](F)C6)C5)ccc4n3)cc2o1` (stereo in doubt) [Compound 396], for the setting “RT-qPCR”, the AC50 lay within 100 to 1000 nM. The half-maximal inhibitory concentration (IC50) reads like this: under setting [1], 100 to 1000 nM; under setting [2], 100 to 1000 nM.
In the case of `Cn1cc2cc(-c3ccc4nc(N5CC[C@@H](NC6(CF)CC6)C5)ccc4n3)c(O)cc2n1` [Compound 354, 5-{6-[(3R)-3-{[1-(fluoromethyl)cyclopropyl]amino}pyrrolidin-1-yl]-1,5-naphthyridin-2-yl}-2-methylindazol-6-ol], the AC50 (RT-qPCR) was less than 100 nM. For the same molecule, the IC50 under setting [1] was less than 100 nM and the IC50 under setting [2] was less than 100 nM.
Turning to `Cn1cc2cc(-c3ccc4nc(N5CC[C@H](NC6(CF)CC6)C5)ccc4n3)c(O)cc2n1` [Compound 355, 5-{6-[(3S)-3-{[1-(fluoromethyl)cyclopropyl]amino}pyrrolidin-1-yl]-1,5-naphthyridin-2-yl}-2-methylindazol-6-ol], for the setting “RT-qPCR”, the AC50 was less than 100 nM. In addition, the IC50 is, setting by setting: under setting [1], less than 100 nM; under setting [2], less than 100 nM.
As to `Cc1c(O)c(-c2ccc3nc(N4CCC(NC5(CF)CC5)C4)ccc3n2)cc2cn(C)nc12` (stereo not drawn) [Compound 360, 5-[6-(3-{[1-(fluoromethyl)cyclopropyl]amino}pyrrolidin-1-yl)-1,5-naphthyridin-2-yl]-2,7-dimethylindazol-6-ol], the concentration at half-maximal activity (AC50) (RT-qPCR) is less than 100 nM. The IC50 was less than 100 nM under setting [1] and less than 100 nM under setting [2].
On to `Cc1c(O)c(-c2cc(C(C)O)c3nc(N4CCNCC4)ccc3n2)cc2cn(C)nc12` (stereo not drawn) [Compound 364, 5-[4-(1-hydroxyethyl)-6-(piperazin-1-yl)-1,5-naphthyridin-2-yl]-2,7-dimethylindazol-6-ol], for which, for the setting “RT-qPCR”, the half-maximal activity concentration (AC50) was 1000 to 10000 nM. The IC50 under setting [1] was 1000 to 10000 nM and the IC50 under setting [2] fell in the range of 1000 to 10000 nM.

Values taken from patent publication US20250092065A1, “2-(INDAZOL-5-YL)-6-(PIPERIDIN-4-YL)-1,7-NAPHTHYRIDINE DERIVATIVES AND RELATED COMPOUNDS AS MODULATORS FOR SPLICING NUCLEIC ACIDS AND FOR THE TREATMENT OF PROLIFERATIVE DISEASES” (REMIX THERAPEUTICS INC., priority 2022, published 2025).
